Tests used:
[1] = molecular target: T1, human opioid receptor-like receptor (ORL-1) (Homo sapiens, UniProt P41146); assay: Nociceptin affinity at the ORL1 receptor ([35S]GTPgS binding, membranes from recombinant HEK-293 cells); settings: ORL-1 membranes from recombinant HEK-293 cells; GraphPad PRISM curve fitting; read-out: Nociceptin Affinity calc Ki
T1 construct: host or cells: HEK-293
Method: Nociceptin affinity at the ORL1 receptor for preferred compounds was obtained using the following assay:
Membranes from recombinant HEK-293 cells expressing the human opioid receptor-like receptor (ORL-1) (Receptor Biology) were prepared by lysing cells in ice-cold hypotonic buffer (2.5 mM MgCl2, 50 mM HEPES, pH 7.4) (10 ml/10 cm dish) followed by homogenization with a tissue grinder/teflon pestle. Membranes were collected by centrifugation at 30,000× g for 15 min at 4° C. and pellets resuspended in hypotonic buffer to a final concentration of 1-3 mg/ml. Protein concentrations were determined using the BioRad protein assay reagent with bovine serum albumen as standard. Aliquots of the ORL-1 receptor membranes were stored at −80° C.
Functional SGTPgS binding assays were conducted as follows. ORL-1 membrane solution was prepared by sequentially adding final concentrations of 0.066 mg/ml ORL-1 membrane protein, […], […] and 0.20 nM [^35S]GTPgS to binding buffer (100 mM NaCl, 10 mM MgCl2, 20 mM HEPES, pH 7.4) on ice. The prepared membrane solution ([…]) was transferred to 96-shallow well polypropylene plates containing […] of 20× concentrated stock solutions of agonist prepared in DMSO. Plates were incubated for 30 min at room temperature with shaking. Reactions were terminated by rapid filtration onto 96-well Unifilter GF/B filter plates (Packard) using a 96-well tissue harvester (Brandel) and followed by three filtration washes with […] ice-cold binding buffer (10 mM NaH2PO4, 10 mM Na2HPO4, pH 7.4). Filter plates were subsequently dried at 50° C. for 2-3 hours. […] scintillation cocktail (BetaScint; Wallac) was added and plates were counted in a Packard Top-Count for 1 min/well.
Data was analyzed using the curve fitting functions in GraphPad PRISMÔ, v.

Mu opioid receptor = Mu opioid receptor (Homo sapiens, UniProt P35372); assay: Affinity at the μ receptor ([35S]GTPγS binding, membranes); settings: GraphPad PRISM curve fitting, read-out: Mu Receptor Affinity calc Ki
Sequence of Mu opioid receptor (P35372 whole entry, species assumed): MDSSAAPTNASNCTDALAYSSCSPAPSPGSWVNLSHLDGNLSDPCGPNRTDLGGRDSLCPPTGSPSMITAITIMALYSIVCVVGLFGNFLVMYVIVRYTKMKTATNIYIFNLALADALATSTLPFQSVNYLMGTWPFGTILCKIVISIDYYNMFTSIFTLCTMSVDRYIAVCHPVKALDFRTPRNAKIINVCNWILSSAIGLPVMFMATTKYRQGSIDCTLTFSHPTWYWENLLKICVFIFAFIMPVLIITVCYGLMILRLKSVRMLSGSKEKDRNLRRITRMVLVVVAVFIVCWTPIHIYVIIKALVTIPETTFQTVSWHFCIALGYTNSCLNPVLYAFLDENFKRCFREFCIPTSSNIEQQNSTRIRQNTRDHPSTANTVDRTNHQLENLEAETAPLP
Method: Affinity at the μ receptor for compounds was obtained according to the following assay:
Mu opioid receptor membrane solution was prepared by sequentially adding final concentrations of […] of the desired membrane protein, 10 μg/ml saponin, 3 μM GDP and 0.20 nM [^35S]GTPγS to binding buffer (100 mM NaCl, 10 mM MgCl2, 20 mM HEPES, pH 7.4) on ice. The prepared membrane solution (190 μl/well) was transferred to 96-shallow well polypropylene plates containing 10 μl of 20× concentrated stock solutions of agonist prepared in DMSO. Plates were incubated for 30 min at room temperature with shaking. Reactions were terminated by rapid filtration onto 96-well Unifilter GF/B filter plates (Packard) using a 96-well tissue harvester (Brandel) and followed by three filtration washes with 200 μl ice-cold binding buffer (10 mM NaH2PO4, 10 mM Na2HPO4, pH 7.4). Filter plates were subsequently dried at 50° C. for 2-3 hours. Fifty μl/well scintillation cocktail (MicroScint20, Packard) was added and plates were counted in a Packard Top-Count for 1 min/well.
Data were analyzed using the curve fitting functions in GraphPad PRISM™, v.3.0 and the results for several compounds are set forth in table 2 below: […]

T1 sequence (P41146 whole entry): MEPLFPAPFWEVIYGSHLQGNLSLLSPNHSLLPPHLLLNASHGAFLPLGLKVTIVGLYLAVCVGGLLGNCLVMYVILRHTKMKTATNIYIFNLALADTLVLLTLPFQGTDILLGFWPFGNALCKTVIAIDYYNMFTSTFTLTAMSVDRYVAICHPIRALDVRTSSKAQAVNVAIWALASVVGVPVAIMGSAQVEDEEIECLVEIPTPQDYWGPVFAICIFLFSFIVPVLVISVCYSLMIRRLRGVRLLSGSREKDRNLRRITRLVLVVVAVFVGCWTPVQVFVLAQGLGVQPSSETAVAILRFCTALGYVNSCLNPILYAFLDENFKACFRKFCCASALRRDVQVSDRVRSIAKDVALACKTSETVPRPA

Structure (SMILES)	Ki [1]	Ki (Mu opioid receptor)
c1ccc2c(c1)CC(N1CCC3(CCc4ccccc43)CC1)C2 [1-(1,3-dihydroinden-2-yl)-spiro[piperidine-4,1′-indane]]	> 10 µM	–
C1=CC2(CCN(C3Cc4ccccc4C3)CC2)c2ccccc21 [1-(1,3-dihydroinden-2-yl)-spiro[piperidine-4,1′-indene]]	8.5 µM	–
C1=CC2(CCN(C3CCc4ccccc4C3)CC2)c2ccccc21 (stereo not shown) [1-(2-[1,2,3,4-tetrahydronaphthyl])-spiro[piperidine-4,1′-indene]]	1.2 µM	–
c1ccc(CCN2CCC3(CCc4ccccc43)CC2)cc1 [1-(2-phenyl-ethyl)-spiro[piperidine-4,1′-indane]]	0.921 µM	–
C1=CC2(CCN(CCC(c3ccccc3)c3ccccc3)CC2)c2ccccc21 [1-(3,3-Bis(phenyl)propyl)-spiro[piperidine-4,1′-indene]]	0.042 µM	–
CC1(C)COC2(CCC(N3CCC4(CCc5ccccc54)CC3)CC2)OC1 [1-(3,3-dimethyl-1,5-dioxaspiro[5.5]undeca-9-yl)-spiro[piperidine-4,1′-indane]]	> 10 µM	–
CC1(C)COC2(CCC(N3CCC4(C=Cc5ccccc54)CC3)CC2)OC1 [1-(3,3-dimethyl-1,5-dioxaspiro[5.5]undeca-9-yl)-spiro[piperidine-4,1′-indene]]	> 10 µM	–
Fc1ccc(C(CCCN2CCC3(CCc4ccccc43)CC2)c2ccc(F)cc2)cc1 [1-(4,4-Bis(p-fluorophenyl)butyl)-spiro[piperidine-4,1′-indane]]	> 10 µM	–
CC(C)C1CCC(N2CCC3(CCc4ccccc43)CC2)CC1 (stereo not shown) [1-(4-(1-methylethyl)-cyclohexyl)-spiro[piperidine-4,1′-indane]]	0.5 µM	0.939 µM
CCCC1CCC(N2CCC3(CCc4ccccc43)CC2)CC1 (stereo not shown) [1-(4-propyl-cyclohexyl)-spiro[piperidine-4,1′-indane]]	2.24 µM	–
CC(C)CCC(C)N1CCC2(CCc3ccccc32)CC1 (stereo not shown) [1-(5-methylhex-2-yl)-spiro[piperidine-4,1′-indane]]	0.676 µM	–
CC(C)CCC(C)N1CCC2(C=Cc3ccccc32)CC1 (stereo not shown) [1-(5-methylhex-2-yl)-spiro[piperidine-4,1′-indene]]	0.355 µM	–
c1ccc2c(c1)CCc1ccccc1C2N1CCC2(CCc3ccccc32)CC1 [1-(10,11-Dihydro-5H-dibenzo[a,d]-cyclohepten-5-yl)-spiro[piperidine-4,1′-indane]]	> 10 µM	–
C1=CC2(CCN(C3c4ccccc4CCc4ccccc43)CC2)c2ccccc21 [1-(10,11-Dihydro-5H-dibenzo[a,d]-cyclohepten-5-yl)-spiro[piperidine-4,1′-indene]]	> 10 µM	–
c1ccc(CN2CCC3(CCc4ccccc43)CC2)cc1 [1-(benzyl)-spiro[piperidine-4,1′-indane]]	0.879 µM	–
c1ccc2c(c1)CCC21CCN(C2CCCCCCC2)CC1 [1-(cyclooctyl)-spiro[piperidine-4,1′-indane]]	0.516 µM	–
C1=CC2(CCN(C3CCCCCCC3)CC2)c2ccccc21 [1-(cyclooctyl)-spiro[piperidine-4,1′-indene]]	0.5 µM	2.04 µM
c1ccc2c(c1)CCC21CCN(CC2CCCCCCC2)CC1 [1-(cyclooctylmethyl)-spiro[piperidine-4,1′-indane]]	0.153 µM	–

Structure (SMILES)	Ki [1]	Ki (Mu opioid receptor)
C1=CC2(CCN(CC3CCCCCCC3)CC2)c2ccccc21 [1-(cyclooctylmethyl)-spiro[piperidine-4,1′-indene]]	0.309 µM	–
c1ccc2c(c1)CCC21CCN(C2CCC3CCCCC3C2)CC1 (stereo not shown) [1-(decahydro-2-naphthyl)-spiro[piperidine-4,1′-indane]]	3.14 µM	–
C1=CC2(CCN(C3CCC4CCCCC4C3)CC2)c2ccccc21 (stereo not shown) [1-(decahydro-2-naphthyl)-spiro[piperidine-4,1′-indene]]	1.29 µM	–
c1ccc2c(c1)CCC21CCN(Cc2cccc3ccccc23)CC1 [1-(naphth-1-yl-methyl)-spiro[piperidine-4,1′-indane]]	0.146 µM	1.12 µM
O=C1Cc2ccccc2C12CCN(Cc1ccc3ccccc3c1)CC2 [1-(naphth-2-yl-methyl)-spiro[piperidine-4,1′-(2-oxo)-indane]]	0.083 µM	–
O=C1CC2(CCN(Cc3ccc4ccccc4c3)CC2)c2ccccc21 [1-(naphth-2-yl-methyl)-spiro[piperidine-4,1′-(3-oxo)-indane]]	0.419 µM	–
c1ccc2cc(CN3CCC4(CCC5CCCCC54)CC3)ccc2c1 (stereo not drawn) [1-(naphth-2-yl-methyl)-spiro[piperidine-4,1′-cis-3a, 4,5,6,7,7a-hexahydroindane]]	0.306 µM	–
c1ccc2c(c1)CCC21CCN(Cc2ccc3ccccc3c2)CC1 [1-(naphth-2-yl-methyl)-spiro[piperidine-4,1′-indane]]	0.035 µM	0.593 µM
C1=CC2(CCN(Cc3ccc4ccccc4c3)CC2)c2ccccc21 [1-(naphth-2-yl-methyl)-spiro[piperidine-4,1′-indene]]	0.036 µM	–
C1=CC2(CCN(C3CC4CCC3C4)CC2)c2ccccc21 (stereo not shown) [1-(norbornan-2-yl)-spiro[piperidine-4,1′-indene]]	6.47 µM	–
c1ccc2c(c1)CCC21CCN(C2C3CCC2CC3)CC1 (stereo not shown) [1-(norbornan-7-yl)-spiro[piperidine-4,1′-indane]]	0.913 µM	–
c1ccc(COc2ccc(CN3CCC4(CCc5ccccc54)CC3)cc2)cc1 [1-(p-benzyloxybenzyl)-spiro[piperidine-4,1′-indane]]	0.877 µM	–
C1=CC2(CCN(Cc3ccc(OCc4ccccc4)cc3)CC2)c2ccccc21 [1-(p-benzyloxybenzyl)-spiro[piperidine-4,1′-indene]]	1.56 µM	–
N#Cc1ccc(CN2CCC3(CCc4ccccc43)CC2)cc1 [1-(p-cyano-benzyl)-spiro[piperidine-4,1′-indane]]	1.53 µM	–
c1ccc(-c2ccc(CN3CCC4(CCc5ccccc54)CC3)cc2)cc1 [1-(p-phenylbenzyl)-spiro[piperidine-4,1′-indane]]	1.21 µM	–
CC(C)C1CCC(N2CCC3(C=Cc4ccccc43)CC2)CC1 (stereo not shown) [1-[4-(2-propyl)-cyclohexyl]-spiro[piperidine-4,1′-indene]]	0.292 µM	–
c1ccc2c(c1)CCC21CCN(C2CC3CCC2C3)CC1 (stereo not shown) [1-[norbornan-2-yl]-spiro[piperidine-4,1′-indane]]	7.21 µM	–
C1=CC2(CCN(C3CCCCCCCCC3)CC2)c2ccccc21 [1-cyclodecyl-spiro[piperidine-4,1′-indene]]	0.427 µM	–
